How the values were obtained:
[1] = biological target: T1, ATP-binding cassette sub-family C member 2 (Rattus norvegicus, UniProt Q63120); experiment: TP_TRANSPORTER: biliary excretion in SD rat; format: functional, organism-based, Sprague-Dawley, Bile; conditions: in vivo
[2] = biological target: T1, ATP-binding cassette sub-family C member 2; experiment: TP_TRANSPORTER: biliary excretion in EHBR rat; format: functional, organism-based, Bile; conditions: in vivo

T1 sequence (Q63120 whole entry): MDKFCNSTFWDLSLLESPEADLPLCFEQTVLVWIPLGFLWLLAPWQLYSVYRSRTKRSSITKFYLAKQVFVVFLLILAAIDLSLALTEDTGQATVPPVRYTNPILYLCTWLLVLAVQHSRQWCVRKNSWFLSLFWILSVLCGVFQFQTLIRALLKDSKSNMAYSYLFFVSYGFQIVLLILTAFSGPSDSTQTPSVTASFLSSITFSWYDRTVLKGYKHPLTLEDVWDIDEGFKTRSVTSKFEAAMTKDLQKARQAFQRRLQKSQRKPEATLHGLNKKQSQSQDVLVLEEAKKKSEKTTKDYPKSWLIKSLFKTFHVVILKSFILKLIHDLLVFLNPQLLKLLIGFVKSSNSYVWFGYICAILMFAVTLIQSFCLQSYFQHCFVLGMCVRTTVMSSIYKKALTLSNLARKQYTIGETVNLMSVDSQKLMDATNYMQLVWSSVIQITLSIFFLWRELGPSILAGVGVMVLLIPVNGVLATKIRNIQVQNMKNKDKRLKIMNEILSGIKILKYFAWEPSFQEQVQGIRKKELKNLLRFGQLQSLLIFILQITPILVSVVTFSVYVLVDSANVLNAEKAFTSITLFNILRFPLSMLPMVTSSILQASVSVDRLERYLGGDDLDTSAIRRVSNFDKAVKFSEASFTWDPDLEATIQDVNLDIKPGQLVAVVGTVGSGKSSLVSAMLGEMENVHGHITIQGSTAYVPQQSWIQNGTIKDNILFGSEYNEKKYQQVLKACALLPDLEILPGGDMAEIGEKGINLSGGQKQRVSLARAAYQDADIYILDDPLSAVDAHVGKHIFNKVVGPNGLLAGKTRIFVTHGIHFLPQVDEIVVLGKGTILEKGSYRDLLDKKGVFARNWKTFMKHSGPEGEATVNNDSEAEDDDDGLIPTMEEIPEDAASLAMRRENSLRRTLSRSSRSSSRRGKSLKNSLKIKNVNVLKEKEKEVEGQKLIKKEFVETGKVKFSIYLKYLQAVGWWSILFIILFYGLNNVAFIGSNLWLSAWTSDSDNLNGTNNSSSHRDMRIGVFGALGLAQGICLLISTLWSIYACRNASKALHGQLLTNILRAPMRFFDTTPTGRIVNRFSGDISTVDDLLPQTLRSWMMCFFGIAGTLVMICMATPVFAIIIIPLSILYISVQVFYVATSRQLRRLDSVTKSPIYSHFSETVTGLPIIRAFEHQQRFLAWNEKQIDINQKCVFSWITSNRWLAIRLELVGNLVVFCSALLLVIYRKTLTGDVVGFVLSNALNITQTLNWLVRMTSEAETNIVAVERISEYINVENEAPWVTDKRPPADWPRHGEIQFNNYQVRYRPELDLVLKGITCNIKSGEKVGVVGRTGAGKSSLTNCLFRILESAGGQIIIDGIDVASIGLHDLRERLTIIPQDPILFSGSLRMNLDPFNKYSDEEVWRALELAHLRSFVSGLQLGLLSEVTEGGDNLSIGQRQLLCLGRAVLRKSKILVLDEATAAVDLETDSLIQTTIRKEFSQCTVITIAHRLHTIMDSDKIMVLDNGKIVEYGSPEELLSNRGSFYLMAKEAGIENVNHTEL

Activity [1]: substrate [+]
Activity [2]: substrate [+]
Compound: CS(=O)(=O)O.Cc1c(N2C[C@@H](N)C3(CC3)C2)c(F)c(N)c2c(=O)c(C(=O)O)cn(C3CC3)c12

Reference: ChEMBL document CHEMBL2073887, “Hepatobiliary transport kinetics of HSR-903, a new quinolone antibacterial agent” (Drug Metab Dispos, 1998)
